According to ChEMBL document CHEMBL1909046, “DrugMatrix in vitro pharmacology data”:

Assays:
Acetylcholinesterase = Acetylcholinesterase (Homo sapiens, UniProt P22303); assay: DRUGMATRIX: Acetylcholinesterase enzyme inhibition (substrate: acetylthiocholine); format: cell-based, HEK293; details: hek293; Not Active = under 50% inhibition at 10 µM
[1] = DRUGMATRIX: Purinergic P2X radioligand binding (ligand: [3H] alpha, beta-Methylene-ATP); format: cell membranes, Oryctolagus cuniculus, New Zealand albino, Urinary bladder, Membrane; details: Not Active = under 50% inhibition at 10 µM
[2] = DRUGMATRIX: Phorbol Ester radioligand binding (ligand: [3H] PDBu); format: cell membranes, Mus musculus, ICR, Brain, Membrane; details: Not Active = under 50% inhibition at 10 µM
Cytochrome P450 2C19 = Cytochrome P450 2C19 (Homo sapiens, UniProt P33261); details: bti-tn-5b1-4; further: in other assays of this panel Not Active means under 50% inhibition at 10 µM
Sequence of Cytochrome P450 2C19 (P33261 whole entry): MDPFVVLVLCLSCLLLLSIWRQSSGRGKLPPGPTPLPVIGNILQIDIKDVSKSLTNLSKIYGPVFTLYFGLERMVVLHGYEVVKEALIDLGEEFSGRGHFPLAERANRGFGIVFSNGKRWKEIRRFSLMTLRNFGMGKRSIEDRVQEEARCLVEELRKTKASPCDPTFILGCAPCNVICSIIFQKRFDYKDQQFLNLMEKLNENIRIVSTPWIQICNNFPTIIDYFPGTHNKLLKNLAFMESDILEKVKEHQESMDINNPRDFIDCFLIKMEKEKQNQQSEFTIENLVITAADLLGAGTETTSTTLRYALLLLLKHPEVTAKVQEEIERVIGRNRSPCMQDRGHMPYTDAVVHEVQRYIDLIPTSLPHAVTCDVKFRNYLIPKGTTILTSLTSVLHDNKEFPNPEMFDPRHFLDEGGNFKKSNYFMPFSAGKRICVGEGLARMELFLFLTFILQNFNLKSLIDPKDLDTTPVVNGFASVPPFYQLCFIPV

Histamine H2 receptor = Histamine H2 receptor (Homo sapiens, UniProt P25021); format: cell membranes, CHO-K1, Membrane; details: cho-k1; further: in other assays of this panel Not Active means under 50% inhibition at 10 µM
Sequence of Histamine H2 receptor (P25021 whole entry): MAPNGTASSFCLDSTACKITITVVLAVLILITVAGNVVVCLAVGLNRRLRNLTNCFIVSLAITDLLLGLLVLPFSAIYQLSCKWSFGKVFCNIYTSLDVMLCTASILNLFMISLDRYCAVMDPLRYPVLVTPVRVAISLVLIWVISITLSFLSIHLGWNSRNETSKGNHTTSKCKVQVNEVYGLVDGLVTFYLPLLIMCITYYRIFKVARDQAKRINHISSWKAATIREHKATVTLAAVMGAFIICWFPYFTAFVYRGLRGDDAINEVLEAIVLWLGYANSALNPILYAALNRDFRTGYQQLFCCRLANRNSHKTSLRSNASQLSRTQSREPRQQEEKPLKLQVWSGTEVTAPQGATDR

[3] = target: Beta-1 adrenergic receptor (Homo sapiens, UniProt P08588); assay: DRUGMATRIX: Adrenergic beta1 radioligand binding (ligand: [125I] Cyanopindolol); format: cell membranes, CHO-K1, Membrane; details: cho-k1; Not Active = under 50% inhibition at 10 µM
Sequence of Beta-1 adrenergic receptor (P08588 whole entry): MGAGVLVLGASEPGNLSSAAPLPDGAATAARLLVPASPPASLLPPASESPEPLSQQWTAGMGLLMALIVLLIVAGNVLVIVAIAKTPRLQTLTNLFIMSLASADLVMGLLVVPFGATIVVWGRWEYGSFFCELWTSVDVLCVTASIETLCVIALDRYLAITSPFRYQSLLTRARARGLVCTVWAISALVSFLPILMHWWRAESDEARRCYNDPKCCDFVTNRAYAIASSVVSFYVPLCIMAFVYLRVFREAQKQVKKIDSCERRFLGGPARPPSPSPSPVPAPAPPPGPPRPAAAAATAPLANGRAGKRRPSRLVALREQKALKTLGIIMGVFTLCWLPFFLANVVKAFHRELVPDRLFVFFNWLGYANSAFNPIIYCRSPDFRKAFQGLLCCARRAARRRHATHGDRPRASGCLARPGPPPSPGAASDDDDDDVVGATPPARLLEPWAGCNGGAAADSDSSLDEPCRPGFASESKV

Sequence of Acetylcholinesterase (P22303 whole entry): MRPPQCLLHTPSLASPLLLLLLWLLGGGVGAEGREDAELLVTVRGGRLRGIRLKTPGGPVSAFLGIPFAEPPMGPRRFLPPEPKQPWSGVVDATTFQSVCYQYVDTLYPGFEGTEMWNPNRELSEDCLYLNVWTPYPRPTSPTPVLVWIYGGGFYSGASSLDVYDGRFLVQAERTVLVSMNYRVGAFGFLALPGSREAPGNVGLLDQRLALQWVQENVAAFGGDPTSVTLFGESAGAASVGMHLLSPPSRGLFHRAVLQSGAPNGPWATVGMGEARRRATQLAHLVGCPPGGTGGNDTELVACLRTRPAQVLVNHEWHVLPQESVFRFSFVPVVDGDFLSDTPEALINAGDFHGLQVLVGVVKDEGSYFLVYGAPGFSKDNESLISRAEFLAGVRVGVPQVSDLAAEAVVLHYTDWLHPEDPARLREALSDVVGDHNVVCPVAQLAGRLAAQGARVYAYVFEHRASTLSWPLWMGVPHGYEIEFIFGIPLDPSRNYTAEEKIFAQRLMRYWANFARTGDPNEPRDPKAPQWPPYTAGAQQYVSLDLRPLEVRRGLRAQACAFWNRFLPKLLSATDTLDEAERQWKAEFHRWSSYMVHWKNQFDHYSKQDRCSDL

C[C@H]1c2cccc(O)c2C(=O)C2=C(O)[C@]3(O)C(=O)C(C(N)=O)=C(O)[C@@H](N(C)C)[C@@H]3[C@@H](O)[C@@H]21.O [DOXYCYCLINE]
Not Active: IC50 (Acetylcholinesterase) | IC50 [1] | Ki [1] | IC50 [2] | Ki [2] | IC50 (Cytochrome P450 2C19) | Ki (Cytochrome P450 2C19) | IC50 (Histamine H2 receptor) | IC50 [3]

O=C(CCCN1CC=C(n2c(=O)[nH]c3ccccc32)CC1)c1ccc(F)cc1 [DROPERIDOL]
Not Active: IC50 (Acetylcholinesterase) | IC50 [1] | Ki [1] | IC50 [2] | Ki [2] | IC50 (Cytochrome P450 2C19) | Ki (Cytochrome P450 2C19) | IC50 (Histamine H2 receptor) | IC50 [3]

CC(C)[C@H]1C(=O)N2CCC[C@H]2[C@]2(O)O[C@](NC(=O)[C@@H]3C=C4c5cccc6[nH]cc(c56)C[C@H]4N(C)C3)(C(C)C)C(=O)N12 [ERGOCORNINE]
Not Active: IC50 (Acetylcholinesterase) | IC50 [1] | Ki [1] | IC50 [2] | Ki [2] | IC50 (Cytochrome P450 2C19) | Ki (Cytochrome P450 2C19) | IC50 (Histamine H2 receptor) | IC50 [3]

OC(Cn1cncn1)(Cn1cncn1)c1ccc(F)cc1F [FLUCONAZOLE]
Not Active: IC50 (Acetylcholinesterase) | IC50 [1] | Ki [1] | IC50 [2] | Ki [2] | IC50 (Cytochrome P450 2C19) | Ki (Cytochrome P450 2C19) | IC50 (Histamine H2 receptor) | IC50 [3]

CC(C)C(=O)Nc1ccc([N+](=O)[O-])c(C(F)(F)F)c1 [FLUTAMIDE]
Not Active: IC50 (Acetylcholinesterase) | IC50 [1] | Ki [1] | IC50 [2] | Ki [2] | IC50 (Cytochrome P450 2C19) | Ki (Cytochrome P450 2C19) | IC50 (Histamine H2 receptor) | IC50 [3]

CC1(C)O[C@@H]2C[C@H]3[C@@H]4CCC5=CC(=O)CC[C@]5(C)[C@@]4(F)[C@@H](O)C[C@]3(C)[C@]2(C(=O)CCl)O1 [HALCINONIDE]
Not Active: IC50 (Acetylcholinesterase) | IC50 [1] | Ki [1] | IC50 [2] | Ki [2] | IC50 (Cytochrome P450 2C19) | Ki (Cytochrome P450 2C19) | IC50 (Histamine H2 receptor) | IC50 [3]

O=c1[nH]c(=O)n([C@H]2C[C@H](O)[C@@H](CO)O2)cc1I [IDOXURIDINE]
Not Active: IC50 (Acetylcholinesterase) | IC50 [1] | Ki [1] | IC50 [2] | Ki [2] | IC50 (Cytochrome P450 2C19) | Ki (Cytochrome P450 2C19) | IC50 (Histamine H2 receptor) | IC50 [3]

CC1Cc2ccccc2N1NC(=O)c1ccc(Cl)c(S(N)(=O)=O)c1 (stereo not drawn) [INDAPAMIDE]
Not Active: IC50 (Acetylcholinesterase) | IC50 [1] | Ki [1] | IC50 [2] | Ki [2] | IC50 (Cytochrome P450 2C19) | Ki (Cytochrome P450 2C19) | IC50 (Histamine H2 receptor) | IC50 [3]

CCC(C)n1ncn(-c2ccc(N3CCN(c4ccc(OCC5COC(Cn6cncn6)(c6ccc(Cl)cc6Cl)O5)cc4)CC3)cc2)c1=O (stereo not drawn) [ITRACONAZOLE]
Not Active: IC50 (Acetylcholinesterase) | IC50 [1] | Ki [1] | IC50 [2] | Ki [2] | IC50 (Cytochrome P450 2C19) | Ki (Cytochrome P450 2C19) | IC50 (Histamine H2 receptor) | IC50 [3]

CCCCN1CCCC[C@H]1C(=O)Nc1c(C)cccc1C [LEVOBUPIVACAINE]
Not Active: IC50 (Acetylcholinesterase) | IC50 [1] | Ki [1] | IC50 [2] | Ki [2] | IC50 (Cytochrome P450 2C19) | Ki (Cytochrome P450 2C19) | IC50 (Histamine H2 receptor) | IC50 [3]

CCCCc1nc(Cl)c(CO)n1Cc1ccc(-c2ccccc2-c2nnn[nH]2)cc1 [LOSARTAN]
Not Active: IC50 (Acetylcholinesterase) | IC50 [1] | Ki [1] | IC50 [2] | Ki [2] | IC50 (Cytochrome P450 2C19) | Ki (Cytochrome P450 2C19) | IC50 (Histamine H2 receptor) | IC50 [3]

Sc1ncnc2nc[nH]c12 [MERCAPTOPURINE ANHYDROUS]
Not Active: IC50 (Acetylcholinesterase) | IC50 [1] | Ki [1] | IC50 [2] | Ki [2] | IC50 (Cytochrome P450 2C19) | Ki (Cytochrome P450 2C19) | IC50 (Histamine H2 receptor) | IC50 [3]
